Experimental data as given in patent publication US20240269115A1, “PYRAZOLONE COMPOUNDS FOR USE IN DEGENERATIVE RETINAL DISEASES” (FLONEXT S.R.L., priority 2021, published 2024).

How the values were obtained:
[1] = test system: NalO3-induced increase in retinal 4-hydroxynonenal (4-HNE) in macular degeneration model mice; assay: Retinal oxidative stress by 4-HNE immunofluorescence in the NalO3 mouse model of macular degeneration; type: in vivo, C57BL/6J male mice; settings: eye drops 5 μl 3 times a day, days 1-3 (dipyrone 16.65 μg, propyphenazone 11.5 μg, indomethacin 17.85 μg); NalO3 20 mg/kg retro-orbital vein; retina collected day 4; mean±SEM
Protocol: (§1) To create a valid model of macular degeneration, systemic administration (via the retro-orbital vein) of NalO3 was carried out in C57BL/6J male mice aged 5-8 weeks and weighing 22-25 g supplied by the Charles River company (Milan, Italy). A total of 30 mice were used to carry out the experiments described below. The animals were kept in a temperature and humidity-controlled environment (12-hour dark/light cycle, free access to food and water).
(§2) As described above, the mouse model obtained by systemic administration (via the retro-orbital vein) of NalO3 is a model of macular degeneration. In fact, 3 days after administration, NalO3 induced in mice persistent retinal damage with characteristics similar to those observed in age-related macular degeneration in humans.
(§3) In order to evaluate the efficacy of dipyrone and propyphenazone, preferred compounds belonging to the pyrazolone class, in reducing and treating the retinal damage typical of macular degeneration, a model of macular degeneration was developed with an experiment on 5 groups of mice. The mice were administered dipyrone, propyphenazone, indomethacin or their vehicle, locally via eye drops.
(§4) In particular, a group of 6 mice (used as a control) were given vehicle (V1) (NaCl, 0.9%) of NalO3 (1 ml/kg) 60 minutes before the injection into the retro-orbital vein and subsequently given eye drops (5 μl) containing the vehicle (V2) (4% DMSO, 4% Tween 80 in 0.9% NaCl) of the drugs 3 times a day by instillation. […]
The level of oxidative stress was also assessed throughout the thickness of the retina by measuring the immunofluorescence intensity for the reactive carbonyl species, 4-hydroxynonenal (4-HNE), a final indicator of oxidative stress.
Levels of 4-HNE were quantified using a primary antibody (#ab48506, monoclonal mouse [HNEJ-2], 1:40, Abcam, Cambridge, UK) to which a second antibody (fluorophore-labelled, Alexa Fluor 594, #A A32742, Thermo Fisher Scientific) binds in the 5 groups of mice treated with V2/V1, V2/NalO3, dipyrone/NalO3, propyphenazone/NalO3 and indomethacin/NalO3. […]

[2] = test system: NalO3-induced damage of the RPE layer in macular degeneration model mice; assay: Retinal pigment epithelium damage by RPE65 immunofluorescence in the NalO3 mouse model of macular degeneration; type: in vivo, C57BL/6J male mice; settings: eye drops 5 μl 3 times a day, days 1-3 (dipyrone 16.65 μg, propyphenazone 11.5 μg, indomethacin 17.85 μg); NalO3 20 mg/kg retro-orbital vein; retina collected day 4; mean±SEM
Protocol: as §1, §2, §3, §4
Damage to the RPE (retinal pigmented epithelium) was assessed by direct immunofluorescence. […]
The staining intensity of the RPE layer was quantified using a primary antibody (RPE65, #ab13826, mouse monoclonal, 1:100, Abcam, Cambridge, UK) to which a second antibody (fluorophore-labelled, Alexa Fluor 488, #A28175, Thermo Fisher Scientific) binds in the 5 groups of mice treated with V2/V1, V2/NalO3, dipyrone/NalO3, propyphenazone/NalO and indomethacin/NalO3. […]

Compound	reduction in retinal 4-HNE levels (immunofluorescence) vs. V2 [1]	reduction of the damage induced by NalO3 on the RPE layer (RPE65 staining intensity) compared to V2 [2]
Cc1c(N(C)CS(=O)(=O)[O-])c(=O)n(-c2ccccc2)n1C.[Na+] [dipyrone, Dipyrone]	69.7±11.8%	87.8±7.8%
COc1ccc2c(c1)c(CC(=O)O)c(C)n2C(=O)c1ccc(Cl)cc1 [indomethacin, Indomethacin]	17.5±10.5%	5.7±14.9%
Cc1c(C(C)C)c(=O)n(-c2ccccc2)n1C [propyphenazone, Propyphenazone]	81.3±7.0%	99.2±23.0%
